The structures appear in SMILES notation. Structures can show the parent of a compound that is named as a salt.

As usually defined, the IC50 is the concentration at which inhibition is half-maximal.

The subject of experiment [1] is up-regulation of ICAM-1 (CD54) by IFNγ in U937 human monocytic cells. The experiment can be described thus: U937 IFNγ ICAM1 FACS Assay. The experiment is classed as cell-based. Particulars: Homo sapiens, U-937, U937 cells stimulated with IFNγ, ICAM-1 expression by FACS; read-out: IC50, Example 44. An excerpt:
The activity of the compounds of the invention may additionally be characterized by assaying the effect of the 2,4-substituted pyrimidinediamine compounds described herein on A549 lung epithelial cells and U937 cells. A549 lung epithelial cells and U937 cells up-regulate ICAM-1 (CD54) surface expression in response to a variety of different stimuli. Therefore, using ICAM-1 expression as readout, test compound effects on different signaling pathways can be assessed in the same cell type. Stimulation with IL-1β through the IL-1β receptor activates the TRAF6/NFκB pathway resulting in up-regulation of ICAM-1. IFNγ induces ICAM-1 up-regulation through activation of the JAK1/JAK2 pathway. The up-regulation of ICAM-1 can be quantified by flow cytometry across a compound dose curve and EC50, values are calculated.
U937 human monocytic cells up-regulate ICAM-1 (CD54) surface expression in response to a variety of different stimuli. Therefore, using ICAM-1 expression as readout, compound effects on different signaling pathways can be assessed in the same cell type. IFNγ up-regulates ICAM-1 through activation of the JAK/Stat pathway. In this example, the up-regulation of ICAM-1 by IFNγ was assessed.
The U937 human monocytic cell line was obtained from ATCC of Rockville Maryland, catalog number CRL-1593.2, and cultured in RPM1-1640 medium containing 10% (v/v) FCS. U937 cells were grown in 10% RPMI. The cells were then plated at a concentration of 100,000 cells per 160 μL in 96 well flat bottom plates. […] Then 4 μL of test compound was transferred to 76 μL of 10% RPMI resulting in a 10× solution (100 μM test compound, 5% DMSO). For control wells, 4 μL of DMSO was diluted into 76 μL 10% RPMI.
The assay was performed in duplicate with 8 points (8 3-fold dilution concentrations from […]) and with 4 wells of DMSO only (control wells) under stimulated conditions and 4 wells of DMSO only under unstimulated conditions.
The diluted compound plate was mixed 2× using a multimek (Beckman Coulter of Brea, California) and then 20 μL of the diluted compounds was transferred to the 96 well plate containing 160 μL of cells, which were then mixed again twice at low speeds. The cells and compounds were then pre-incubated for 30 minutes at 37° C. with 5% CO2.
The 10× stimulation mix was made by preparing a 100 ng/mL solution of human IFNγ in 10% RPMI. […] The cells were kept under conditions for stimulation for 18-24 hours at 37° C. with 5% CO2.
The cells were transferred to a 96 well round bottom plate for staining and then kept on ice for the duration of the staining procedure. Cells were spun down at 1000 rpm for 5 minutes at 4° C., following which the supernatant was removed. Following removal of the supernatant, 1 μL APC conjugated mouse anti-human ICAM-1 antibody was added per 100 μL FACS buffer. The cells were then incubated on ice in the dark for 30 minutes. Following incubation, […] of FACS buffer was added and the cells were centrifuged at 1000 rpm for 5 minutes at 4° C., following which the supernatant was removed. After removal of the supernatant, 200 μL of FACS buffer was added and the cells were resuspended. After suspension, the cells were centrifuged at 1000 rpm for 5 min at 4° C. Supernatant was then removed prior to resuspension of the cells in 150 μL FACS buffer.
Detection was performed using a BD LSR I System Flow Cytometer, purchased from BD Biosciences of San Jose, California The live cells were gated for live scatter and the geometric mean of ICAM-APC was measured (Becton-Dickinson CellQuest software version 3.3, Franklin Lakes, NJ). Both % live cells and ICAM-1 expression was analyzed. The assays for the test compounds were carried out in parallel with a control compound of known activity.
(In general: A flow cytometer gives signals particle by particle.)

The test system of experiment [2] is IL-4 stimulated expression of CD23 in human Ramos B cells (JAK-1 and JAK-3). The experiment can be described thus: Assay for Ramos B-Cell Line Stimulated with IL-4 (CD23 upregulation, FACS). The format is cell-based. The note with it: Homo sapiens, Ramos, Ramos B cells stimulated with IL-4, CD23 expression by FACS; read-out: IC50, Example 41. In short, it runs like this:
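Compound effect on IL-4-driven JAK1/JAK3 signalling is gauged as CD23 surface expression, measured by FACS after 20-24 h of stimulation with IL-4 at 50 units/mL final. A 1 h compound pre-treatment at 37 °C precedes stimulation, and IC50 is derived from the results.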

As to `COc1ccc(CN2C(=O)C(C)Sc3ccc(Nc4nc(Nc5ccc(S(N)(=O)=O)cc5)ncc4F)cc32)cc1` (racemic) [Compound V-10, (R/S)-N2-(4-Aminosulphonylphenyl)-5-fluoro-N4-[2-methyl-3-oxo-4-(4-methoxybenzyl)-benzo[1,4]thiazin-6-yl]-2,4-pyrimidinediamine], the IC50 in experiment [1] is 2.7 µM; in experiment [2], 0.261 µM.
For `N#CCN1C(=O)COc2ccc(Nc3nc(Nc4ccc(S(N)(=O)=O)cc4)ncc3F)cc21` [Compound V-6, N2-(4-Aminosulphonylphenyl)-5-fluoro-N4-(3-oxo-4-cyanomethyl-benz[1,4]oxazin-6-yl]-2,4-pyrimidinediamine], the IC50 in experiment [1] stood at 0.572 µM; in experiment [2], 0.0219 µM.
For `N#CCN1C(=O)COc2ccc(Nc3nc(Nc4cccc(S(N)(=O)=O)c4)ncc3F)cc21` [Compound V-7, N2-(3-Aminosulphonylphenyl)-5-fluoro-N4-(3-oxo-4-cyanomethyl-benz[1,4]oxazin-6-yl]-2,4-pyrimidinediamine] the same measures were 0.821 µM and 0.0588 µM.
For `Cc1ccc(Nc2ncc(F)c(Nc3ccc4c(c3)N(CC#N)C(=O)CO4)n2)cc1S(N)(=O)=O` [Compound V-8, N2-(3-Aminosulphonyl-4-methylphenyl)-5-fluoro-N4-[3-oxo-4-cyanomethyl-benz[1,4]oxazin-6-yl]-2,4-pyrimidinediamine] the same measures were 0.62 µM and 0.0291 µM.
For `N#CCN1C(=O)CSc2ccc(Nc3nc(Nc4ccc(S(N)(=O)=O)cc4)ncc3F)cc21` [Compound V-11, N2-(4-Aminosulphonylphenyl)-5-fluoro-N4-(3-oxo-4-cyanomethyl-benzo[1,4]thiazin-6-yl)-2,4-pyrimidinediamine] the same measures were 1.42 µM and 0.0698 µM.
As to `N#CCN1C(=O)CSc2ccc(Nc3nc(Nc4cccc(S(N)(=O)=O)c4)ncc3F)cc21` [Compound V-12, N2-(3-Aminosulphonylphenyl)-5-fluoro-N4-(3-oxo-4-cyanomethyl-benzo[1,4]thiazin-6-yl)-2,4-pyrimidinediamine], the half-inhibitory concentration (IC50) in experiment [1] worked out at 3.04 µM; in experiment [2], 0.188 µM.
For `Cc1ccc(Nc2ncc(F)c(Nc3ccc4c(c3)N(CC#N)C(=O)CS4)n2)cc1S(N)(=O)=O` [Compound V-13, N2-(3-Aminosulphonyl4-methylphenyl)-5-fluoro-N4-(3-oxo-4-cyanomethyl-benzo[1,4]thiazin-6-yl)-2,4-pyrimidinediamine] the same measures were 1.2 µM and 0.0529 µM.
For `NS(=O)(=O)c1ccc(Nc2ncc(F)c(NCCc3ccc(-n4ccnc4)cc3)n2)cc1` [III-90, N2-(4-Aminosulfonylphenyl)-5-fluoro-N4-[4-(1-imidazolyl)phenethyl]-2,4-pyrimidinediamine] the same measures were 2.63 µM and 0.358 µM.
For `NS(=O)(=O)c1cccc(Nc2ncc(F)c(Nc3ccc(Cc4ccncc4)cc3)n2)c1` [III-128, N2-(3-Aminosulfonylphenyl)-5-fluoro-N4-[4-(4-pyridylmethyl)phenyl]-2,4-pyrimidinediamine p-Toluenesulfonic Acid Salt] the same measures were 1.44 µM and 0.145 µM.
`NS(=O)(=O)c1cccc(Nc2ncc(F)c(Nc3cccc(-c4cnco4)c3)n2)c1` [IV-1, N2-(3-Aminosulfonylphenyl)-5-fluoro-N4-[3-(1,3-oxazol-5-yl)phenyl]-2,4-pyrimidinediamine]: the concentration for half-maximal inhibition (IC50) was determined as 0.272 µM in experiment [1] and 0.0736 µM in experiment [2].
For `Cc1ccc(Nc2ncc(F)c(Nc3cccc(-c4cnco4)c3)n2)cc1S(N)(=O)=O` [IV-2, N2-(3-Aminosulfonyl-4-methylphenyl)-5-fluoro-N4-[3-(1,3-oxazol-5-yl)phenyl]-2,4-pyrimidinediamine] the same measures were 0.705 µM and 0.08 µM.
For `NS(=O)(=O)c1cccc(Nc2ncc(F)c(Nc3ccc(-c4cnco4)cc3)n2)c1` [IV-5, N2-(3-Aminosulfonylphenyl)-5-fluoro-N4-[4-(1,3-oxazol-5-yl)phenyl]-2,4-pyrimidinediamine] the same measures were 0.504 µM and 0.0977 µM.
For `Cc1ccc(Nc2ncc(F)c(Nc3ccc(-c4cnco4)cc3)n2)cc1S(N)(=O)=O` [IV-6, N2-(3-Aminosulfonyl-4-methylphenyl)-5-fluoro-N4-[4-(1,3-oxazol-5-yl)phenyl]-2,4-pyrimidinediamine] the same measures were 0.88 µM and 0.103 µM.
`C#CCn1ccc2cc(Nc3nc(Nc4ccc(C)c(S(N)(=O)=O)c4)ncc3F)ccc21` [IX-1, N2-(3-Aminosulfonyl-4-methylphenyl)-5-fluoro-N4-[1-(propyn-3-yl)indol-5-yl]-2,4-pyrimidinediamine]: the IC50 in experiment [1] is 1.13 µM; in experiment [2], 0.0893 µM.
In the same order, the values of `C#CCn1ccc2cc(Nc3nc(Nc4cccc(S(N)(=O)=O)c4)ncc3F)ccc21` [IX-2, N2-(3-Aminosulfonylphenyl)-5-fluoro-N4-[1-(propyn-3-yl)indol-5-yl]-2,4-pyrimidinediamine] are 1.77 µM and 0.0795 µM.
Turning to `COc1c(C)cc(Nc2ncc(F)c(Nc3ccc(C(C)(C)C)cc3)n2)cc1S(N)(=O)=O` [VI-37, N2-(3-Aminosulfonyl-4-methoxy-5-methylphenyl)-N4-(4-tert-butylphenyl)-5-fluoro-2,4-pyrimidinediamine], the IC50 in experiment [2] was found to be 0.0692 µM.
Still for that read-out and setting: under `COc1ccc(Nc2nc(Nc3ccc(C(C)C)c(S(N)(=O)=O)c3)ncc2F)cc1Cl` [VI-45, N2-(3-Aminosulfonyl-4-iso-propylphenyl)-N4-(3-chloro-4-methoxy-phenyl)-5-fluoro-2,4-pyrimidinediamine] stands 0.108 µM.
On the same count and under the same terms, for `C#CCOc1ccc(Nc2nc(Nc3ccc(C)c(S(N)(=O)=O)c3)ncc2F)cc1Cl` [VI-59, N2-(3-Aminosulfonyl-4-methylphenyl)-N4-[3-chloro-4-(prop-2-ynyloxy)phenyl]-5-fluoro-2,4-pyrimidinediamine] the value was 0.076 µM; for `Cc1ccc(Nc2ncc(F)c(Nc3ccc(CCCF)cc3)n2)cc1S(N)(=O)=O` [VI-84, N2-(3-Aminosulfonyl-4-methylphenyl)-5-fluoro-N4-[4-(3-fluoropropyl)phenyl]-2,4-pyrimidinediamine], 0.132 µM.
Still for that read-out and setting: under `NS(=O)(=O)c1ccc(Nc2ncc(F)c(Nc3ccc(CCCO)cc3)n2)cc1` [VI-85, N2-(4-Aminosulfonylphenyl)-5-fluoro-N4-[4-(3-hydroxypropyl)phenyl]-2,4-pyrimidinediamine] stands 0.129 µM; under `NS(=O)(=O)c1ccc(Nc2ncc(F)c(Nc3ccc(CCCCO)cc3)n2)cc1` [VI-88, N2-(4-Aminosulfonylphenyl)-5-fluoro-N4-[4-(4-hydroxybutyl)phenyl]-2,4-pyrimidinediamine], 0.216 µM.
`Cc1ccc(Nc2ncc(F)c(Nc3ccc4oc(C#N)cc4c3)n2)cc1S(N)(=O)=O` [VII-53, N2-(3-Aminosulfonyl-4-methylphenyl)-N4-(2-cyanobenzofuran-5-yl)-5-fluoro-2,4-pyrimidinediamine]: the IC50 in experiment [2] is 0.168 µM.
Same read-out and setting: for `Cc1ccc2cc(Nc3nc(Nc4ccc(C)c(S(N)(=O)=O)c4)ncc3F)ccc2n1` [VII-71, N2-(3-Aminosulfonyl-4-methylphenyl)-5-fluoro-N4-(2-methylquinolin-6-yl)-2,4-pyrimidinediamine] the value was 0.149 µM.
